According to US20260250278A1, “PHENYL-SUBSTITUTED DIHYDRONAPHTHYRIDINE COMPOUNDS, AND PREPARATION AND USE THEREOF” (SUZHONG PHARMACEUTICAL GROUP CO., LTD., priority 2022, published 2026):

Target: T1, mineralocorticoid receptor (MR) (Homo sapiens, UniProt P08235)
T1 construct: expressed in transfected cells
T1 sequence (P08235 726-964 limits assumed): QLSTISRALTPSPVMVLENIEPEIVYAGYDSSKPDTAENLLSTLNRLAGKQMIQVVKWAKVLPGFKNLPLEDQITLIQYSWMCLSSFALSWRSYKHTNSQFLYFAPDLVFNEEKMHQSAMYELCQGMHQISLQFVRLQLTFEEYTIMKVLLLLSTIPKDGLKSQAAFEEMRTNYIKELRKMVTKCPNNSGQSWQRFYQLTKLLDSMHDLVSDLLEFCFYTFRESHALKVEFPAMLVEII
Test: MR Gal4-LBD luciferase reporter gene assay in HEK293T cells (antagonism of 0.8 nM aldosterone)
Type: cell-based
From the text: By the characteristic of chemiluminescence reaction produced by combination of luciferase and substrate, a Gal4 DNA binding domain (DBD) fused plasmid containing a mineralocorticoid receptor (MR) ligand binding domain (LBD) and a firefly luciferase reporter gene plasmid under the control of Gal4 UAS (upstream activation sequence) were transfected into human embryonic kidney cells (HEK293). Changes of […] were judged by a level of firefly luciferase activity.
All compounds were dissolved in DMSO to prepare a 25 mM stock solution, and stored in a refrigerator at −20° C.
• 1) A compound to be tested was subjected to 3-times gradient dilution with the DMSO, with 10 concentration gradients and an initial concentration of 10 mM. • 2) A positive compound (Finerenone) was subjected to 3-times gradient dilution with the DMSO, with 10 concentration gradients and an initial concentration of 1 mM. • 3) 1000× positive control (1 mM, Finerenone) and 1000× negative control (100% DMSO) were prepared. • 4) A compound plate was sealed and shaken for 5 minutes.
• 5) All cells were cultured by ATCC standard operation, and HEK293T was experimented in an exponential growth phase. • 6) A culture medium supernatant was gently discarded. The cells were washed with PBS twice.
(3) The cells were digested with pancreatin digestive juice, the digestion was stopped with a complete culture solution, and then the cells were collected and counted.
(4) 6×10^6 HEK293T cells were inoculated into a 100 mm cell culture dish.
(5) The culture dish inoculated with the cells was cultured in a 5% CO2 incubator at 37° C. for 16 hours overnight.
• 1) Lipofectamine® 3000&P3000 transfection reagents were placed at room temperature. • 2) The Lipofectamine® 3000 reagent was added into an Opti-MEM™ culture medium, and meanwhile, the P3000, the plasmid and the Opti-MEM™ culture medium were added into another tube, taking care not to touch the tube wall. • 3) The mixture was mixed evenly by a pipette, and allowed to stand at room temperature for 5 minutes. • 4) The plasmid was added into the diluted transfection reagent, mixed evenly by a pipette, and allowed to stand at room temperature for 20 minutes. • 5) The transfection reagent mixed with the plasmid was added into a […] cell culture dish. • 6) The culture dish was cultured in a 5% CO2 incubator at 37° C. for 5 hours to 6 hours.
• 1) 25 nL of diluted compound was transferred to a cell culture plate with Echo655. • 2) The cells (referring to step 1.3) were inoculated into a 384 cell culture plate, with 17,000 cells, 25 μL of phenol red-free DMEM culture medium containing 5% CFBS and 0.8 nM Aldosteron per well.
(3) The cell culture plate was cultured in a 5% CO2 incubator at 37° C. for 18 hours to 20 hours overnight.
• 1) A Britelite plus detection reagent was placed at room temperature. 2) The 384 cell plate was placed at room temperature. • 3) 25 μL of Britelite plus detection reagent was added into each well of the cell culture plate. • 4) A luminescence was detected with Envision.
• 1) a firefly luciferase signal was obtained by reading the Luminescence to calculate an inhibition rate; • 2) % inhibition rate=100−[(RLU compound−avgRLU positive control)/(RLU negative control−avgRLU positive control)×100%, wherein the avgRLU positive control was an average value of Luminescences of all positive control wells in the whole plate; the avgRLU negative control was an average value of Luminescences of all negative control wells in the whole plate; and the RLU compound was Luminescence values of compounds to be tested with different concentrations; and • 3) IC50 of the compound was calculated by Graphpad8.0 Drawing software.

CCOc1ncc(C)c2c1C(c1ccc(C#N)c3c1OCCO3)C(C(N)=O)=C(C)N2 (stereo not drawn) [Example 25, 4-(8-cyano-2,3-dihydrobenzo[b][1,4]dioxin-5-yl)-5-ethoxy-2,8-dimethyl-1,4-dihydro-1,6-naphthyridine-3-formamide]
IC50: 37.5 nM

CCOc1ncc(C)c2c1[C@H](c1ccc(C#N)c3c1OCCO3)C(C(N)=O)=C(C)N2 [Example 40, (S)-4-(8-cyano-2,3-dihydrobenzo[b][1,4]dioxin-5-yl)-5-ethoxy-2,8-dimethyl-1,4-dihydro-1,6-naphthyridine-3-formamide]
IC50: 12.7 nM

COc1cc(C#N)ccc1C1C(C#N)=C(C)Nc2c(C)cn3nccc3c21 (stereo not drawn) [Example 7, 10-(4-cyano-2-methoxyphenyl)-6,8-dimethyl-7H,10H-pyrazolo[3,2-f]1,6-naphthyridine-9-carbonitrile]
IC50: 322 nM

CC1=C(C(N)=O)C(c2ccc(C#N)c3c2OCC3)c2c(OCC3CCC3)ncc(C)c2N1 (stereo not drawn) [Example 22]
IC50: 8.7 nM

COc1cc(C#N)ccc1C1C(C#N)=C(C)Nc2sc3ccccc3c21 (stereo not drawn) [Example 8, 4-(4-cyano-2-methoxyphenyl)-2-methyl-1,4-dihydrobenzo[4,5]thieno[2,3-b]pyridine-3-carbonitrile]
IC50: 20.4 nM

CCOc1ncc(C)c2c1[C@H](c1ccc(C#N)c3c1OCCC3)C(C(N)=O)=C(C)N2 [Example 32, (S)-4-(5-cyanored-8-yl)-5-ethoxy-2,8-dimethyl-1,4-dihydro-1,6-naphthyridine-3-formamide]
IC50: 8 nM

CC1=C(C(N)=O)C(c2ccc(C#N)c3c2OCC3)c2c(OC(F)F)ncc(C)c2N1 (stereo not drawn) [Example 17, 4-(4-cyano-2,3-dihydrobenzofuran-7-yl)-5-(difluoromethoxy)-2,8-dimethyl-1,4-dihydro-1,6-naphthyridine-3-formamide]
IC50: 19.2 nM

CC1=C(C(N)=O)C(c2ccc(C#N)c3c2OCC3)c2c(OCC3CC(F)(F)C3)ncc(C)c2N1 (stereo not drawn) [Example 16]
IC50: 34.1 nM

CCOc1ncc(C)c2c1C(c1ccc(C#N)c3c1OCO3)C(C(N)=O)=C(C)N2 (stereo not drawn) [Example 14, 4-(7-cyanobenzo[d][1,3]dioxacyclopenten-4-yl)-5-ethoxy-2,8-dimethyl-1,4-dihydro-1,6-naphthyridine-3-formamide]
IC50: 46.2 nM

CC1=C(C(N)=O)C(c2ccc(C#N)c3c2OCC3)c2c(OC3CCCC3)ncc(C)c2N1 (stereo not drawn) [Example 15, 4-(4-cyano-2,3-dihydrobenzofuran-7-yl)-5-cyclopentoxy-2,8-dimethyl-1,4-dihydro-1,6-naphthyridine-3-formamide]
IC50: 18.2 nM

CCOc1ncc(C)c2c1C(c1ccc(C#N)cc1OC)C(c1nnco1)=C(C)N2 (stereo not drawn) [Example 2, 4-(5-ethoxy-2,8-dimethyl-3-(1,3,4-oxadiazole-2-yl)-1,4-dihydro-1,6-naphthyridine-4-yl)-3-methoxybenzonitrile]
IC50: 48.9 nM

CCOc1nc2ccsc2c2c1C(c1ccc(C#N)cc1OC)C(C(N)=O)=C(C)N2 (stereo not drawn) [Example 13, 6-(4-cyano-2-methoxyphenyl)-5-ethoxy-8-methyl-6,9-dihydrothieno[3,2-h][1,6]naphthyridine-7-formamide]
IC50: 232 nM

CCOc1nn(C)c2c1C(c1ccc(C#N)cc1OC)C(C#N)=C(C)N2 (stereo not drawn) [Example 9, 4-(4-cyano-2-methoxyphenyl)-3-ethoxy-1,6-dimethyl-4,7-dihydropyrazolo[3,4-b]pyridine-5-carbonitrile]
IC50: 661 nM

CC1=C(C(N)=O)C(c2ccc(C#N)c3c2OCC3)c2c(OCC3CC3)ncc(C)c2N1 (stereo not drawn) [Example 19, 4-cyano-2,3-dihydrobenzofuran-7-yl-5-cyclopropylmethoxy-2,8-dimethyl-1,4-dihydro-1,6-naphthyridine-3-formamide]
IC50: 27.7 nM

CC1=C(C(N)=O)C(c2ccc(C#N)c3c2OCC3)c2c(OC3CCC3)ncc(C)c2N1 (stereo not drawn) [Example 21, 4-(4-cyano-2,3-dihydrobenzofuran-7-yl)-5-cyclobutoxy-2,8-dimethyl-1,4-dihydro-1,6-naphthyridine-3-formamide]
IC50: 20.2 nM

CCOc1nc2c(c3c1C(c1ccc(C#N)cc1OC)C(C(N)=O)=C(C)N3)CCC2 (stereo not drawn) [Example 4, 4-(4-cyano-2-methoxyphenyl)-5-ethoxy-2-methyl-4,7,8,9-tetrahydrocyclopentane-1H-cyclopentamide]
IC50: 111 nM

CCOc1ncc(C)c2c1C(c1ccc(C#N)cc1OC)C(c1nnc(C)o1)=C(C)N2 (stereo not drawn) [Example 3, 4-(5-ethoxy-2,8-dimethyl-3-(5-methyl-1,3,4-oxadiazole-2-yl)-1,4-dihydro-1,6-naphthyridine-4-yl)-3-methoxybenzonitrile]
IC50: 113 nM

CC1=C(C(N)=O)C(c2ccc(C#N)c3c2OCC3)c2c(OCC(F)(F)F)ncc(C)c2N1 (stereo not drawn) [Example 24, 4-cyano-2,3-dihydrobenzofuran-7-yl-2,8-dimethyl-5-(2,2,2-trifluoroethoxy)-1,4-dihydro-1,6-naphthyridine-3-formamide]
IC50: 7.9 nM

CC1=C(C(N)=O)C(c2ccc(C#N)c3c2OCC3)c2c(OC3CC3)ncc(C)c2N1 (stereo not drawn) [Example 18, 4-(4-cyano-2,3-dihydrobenzofuran-7-yl)-5-cyclopropoxy-2,8-dimethyl-1,4-dihydro-1,6-naphthyridine-3-formamide]
IC50: 28.5 nM

COc1cc(C#N)ccc1C1C(C#N)=C(C)Nc2c1ccc1c2CCC1 (stereo not drawn) [Example 5, 4-(4-cyano-2-methoxyphenyl)-2-methyl-4,7,8,9-tetrahydrocyclopentane-3-carbonitrile]
IC50: 235 nM

CCOc1ncc(C)c2c1C(c1ccc(C#N)cc1OC)C(c1ncco1)=C(C)N2 (stereo not drawn) [Example 1]
IC50: 192 nM

CCOc1ncc(C)c2c1C(c1ccc(C#N)c3c1OCCC3)C(C(N)=O)=C(C)N2 (stereo not drawn) [Example 6, 4-(5-cyanored-8-yl)-5-ethoxy-2,8-dimethyl-1,4-dihydro-1,6-naphthyridine-3-formamide]
IC50: 21.6 nM

CCOc1nc2ccccc2c2c1C(c1ccc(C#N)cc1OC)C(C#N)=C(C)N2 (stereo not drawn) [Example 12, 4-(4-cyano-2-methoxyphenyl)-5-ethoxy-2-methyl-1H,4H-benzo[h]-1,6-naphthyridine-3-carbonitrile]
IC50: 215 nM

CC1=C(C(N)=O)C(c2ccc(C#N)c3c2OCC3)c2c(OC(F)(F)F)ncc(C)c2N1 (stereo not drawn) [Example 23, 4-cyano-2,3-dihydrobenzofuran-7-yl-2,8-dimethyl-5-trifluoromethoxy-1,4-dihydro-1,6-naphthyridine-3-formamide]
IC50: 24.8 nM

CCOc1ncc(C)c2c1C(c1ccc(C#N)c3c1OCC3)C(C(N)=O)=C(C)N2 (stereo not drawn) [Example 11, 4-(4-cyano-2,3-dihydrobenzofuran-7-yl)-5-ethoxy-2,8-dimethyl-1,4-dihydro-1,6-naphthyridine-3-formamide]
IC50: 92.1 nM

CC1=C(C(N)=O)C(c2ccc(C#N)c3c2OCC3)c2c(OC(C)C)ncc(C)c2N1 (stereo not drawn) [Example 20, 4-(4-cyano-2,3-dihydro-1-benzofuran-7-yl)-5-isopropoxy-2,8-dimethyl-1,4-dihydro-1,6-naphthyridine-3-formamide]
IC50: 15.2 nM

COc1cc(C#N)ccc1C1C(C#N)=C(C)Nc2c(C)cc3nncn3c21 (stereo not drawn) [Example 10, 9-(4-cyano-2-methoxyphenyl)-5,7-dimethyl-6,9-dihydro[1,2,4]triazolo[4,3-a][1,5]naphthyridine-8-carbonitrile]
IC50: 348 nM
